Assay results taken from patent EP4349409A1, “COMPOUNDS FOR THE MANAGEMENT OF CELL STEMNESS AND INVASION IN CANCER AND RELATED DISEASES” (Instituto Biomar S.A., priority 2022, dated 2024).
Read-outs that look alike come from different tables or passages of the source.

What was measured:
P1-TP73 promoter = assay: P1-p73-Fluc-DsRed reporter validation in HCT116 p53-/- cells; format: cell-based, human; details: HCT116 p53-/- cells transfected with P1-p73-FlucDsRed vector, cultured with Doxo, 24 and 48 hours
From the text: A bimodal reporter vector, named P1-p73-Fluc-DsRed2, was engineered based on the previously published lentiviral system LV-CMV-Fluc-dsRed2 (Shah et al., 2008). […] Using this backbone, the CMV promoter was swapped for a 930 bp fragment of the human P1-TP73 promoter contained in the P1-p73-Luc-pGL3-Basic vector (-859 to +71 of TP73 gene) (Seelan et al., 2002) (Figure 1A'). To validate the generated system, we used the HCT116 p53-/- cells in which endogenous TAp73 expression can be induced by the genotoxic drug doxorubicin (Doxo), at RNA and protein levels (Figure 1B and Vossio et al., 2002, respectively). Next, we tested whether the engineered reporter vector could monitor these changes in endogenous TAp73 RNA levels. For this purpose, HCT116 p53-/- cells were either non-transfected (NT) or transfected with P1-p73-FlucDsRed vector and cultured with Doxo (black square fill pattern bar) or without treatment (grey bar) for the indicated time points (Figure 1C), at which the fluorescence levels (DsRed, Y axis) were measured by fluorimetry.
As depicted in Figure 1C, we detected an increase in endogenous P1-promoter activity after 24 and 48 hours of culture […].

T98G = assay: MTT-based cytotoxicity assay, T98G; format: cell-based; details: Homo sapiens, 72 h
Method: (§1) A dose-response analysis of BMT9 (concentrations ranging from 4.5 µM-18 µM), BCNU (from 150 µM-500 µM) and TMZ (350 µM-700 µM) was performed in two conventional glioblastoma cell lines (T98G, U373) and the GNS cell line G144 by MTT-based cytotoxicity assays (Figure 5A-D). Cells were seeded on p96-well plates and treated with the different compounds for 72 h. Then, the MTT reagent (3-(4,5-Dimethyl-2-thiazolyl)-2,5-diphenyl-2H-tetrazolium bromide diluted in PBS to a concentration of 1mg/ml), was added to each well to a final concentration of 0.33mg/ml, and incubated for 3 h at 37°C. After that, the media was removed, and formazan crystals were solubilized with DMSO. Absorbance was measured at 560 nm using a "Synergy HT" plate reader (Biotek). In the graphs, the Y axis represents the percentage of cell viability relative to non-treated cells. The IC50, when reached are marked by a rectangle. DMSO treatment had no effect on cell viability.

G144 [1] = assay: MTT-based cytotoxicity assay, G144; format: cell-based, human; details: Homo sapiens, 72 h, G144, MTT
Method: as §1
Previous studies have reported that the molecular signature of the GNSC G144 cell line corresponds to a 'proneural' subtype of GB with NSC features (Pollard et al., 2009; Danovi et al., 2013). Thus, to test BMT9 specificity we compared cellular viability when treating CD133-positive cells (either GNSCs or normal human fetal neural stem cells-NSC) versus CD133-negative human embryonic fibroblast (HEFs) (Figure 8A). MTT-based cytotoxicity assay (Figure 7B-D) were performed as previously described.
While the first line therapy of gliomas has proven its effectiveness and improved clinical outcomes, acquired chemoresistance to alkylating agents has been identified as a major cause of treatment failure (Sarkaria et al., 2008). In a murine model of GB, long-term treatment with subtoxic TMZ doses enriched the side population of cancer stem cells, increasing the tumor aggressiveness (Bleau et al., 2009). Thus, we generated TMZ-resistant G144-clones that were selected upon treatment with TMZ either at 500 µM or 700 µM for several months (R500 and R700, respectively). The obtained clones maintained CD133 stem marker expression (Figure 9A). We then analyzed BMT9 dose-dependent effect on cell viability, by MTT assay, comparing the resistant clones to parental cells.

G144 [2] = details: called 'known'; cell line not stated, used in G144 parental and resistant clone experiment; cited from earlier work
U373 = assay: MTT-based cytotoxicity assay, U373; format: cell-based; details: Homo sapiens, U373 MG, 72 h
Method: as §1

GNSCs = assay: MTT assay of BMT9 analogues against GNSCs; format: cell-based; details: 48 and 72 h
Method: as §1
The cytotoxicity of two BMT9 analogues synthetized by Instituto Biomar S.A. was evaluated by MTT assays.

COc1cccc2c1C(=O)c1c(O)c3c(c(O)c1C2=O)C[C@@](O)(C(=O)CO)C[C@@H]3O[C@H]1C[C@H](N)[C@H](O)[C@H](C)O1 [Doxo, doxorubicin]
reporter activity (DsRed fluorescence) (P1-TP73 promoter): increase in reporter activity that was sustained after 48 hours

O=NN(CCCl)C(=O)NCCCl [BCNU, carmustine, reference compound]
IC50 (T98G): 500 µM
IC50 (G144 [1]): 250 µM
IC50 (G144 [2]): 500 µM
IC50 (U373): 250 µM

C=C1C2CCC(C)(C3COc4c(C=O)c5c(c(OC)c4C3O)C(=O)OC5O)C1CCC2(C)C (stereo not shown) [BMT9.2]
IC50 (GNSCs): ≤ 4.5 µM

C=C1C2CCC(C)(C3COc4c(C=O)c5c(c(OC)c4C3O)C(=O)OC5OC(C)=O)C1CCC2(C)C (stereo not shown) [BMT9.5]
IC50 (GNSCs): ≤ 4.5 µM
